Laboratory results taken from US9877997B2, “Methods and compositions for regulating SRCA2A expression levels in myocardial infarction” (Stealth BioTherapeutics Corp., priority 2013, dated 2018).

Assays:
[1] = tested on: plasma membrane of several mammalian cell types; settings: energy-independent manner; cited from earlier work
SERCA2a expression = SERCA2a expression by qRT-PCR in heart samples post-myocardial infarction (Example 1); type: in vivo; settings: rat, 6 weeks, normalized to β-actin, relative to sham
Experimental: Rats were anesthetized, ventilated, and a thoracotomy performed in the left 4th intercostal space. Temperature was maintained at 36° C. by placing the rats on a heating pad during the procedure. The pericardium was excised and the proximal left coronary artery isolated and permanently occluded with a suture. Coronary artery occlusion was confirmed by cyanosis and akinesis of the anterior wall of the ventricle. The chest was closed, air evacuated, and the rats allowed to recover. Analgesia was administered per the veterinarian. An echocardiogram was obtained at approximately 15 minutes post coronary artery occlusion. At 2 hours rats were randomized to receive chronic daily D-Arg-2′6′-Dmt-Lys-Phe-NH2 (delivered subcutaneously by an Alzet Osmotic Pump—3 mg/kg/day, n=7), water (n=7), sham operation (normal non-infarct hearts, n=7). The Osmotic Pump delivered approximately 0.15 μl/hr for 6 weeks (model 2006; 200 μl). The Alzat pump was implanted subcutaneously between the shoulder blades while the rat was still anesthetized.
After 6 weeks, heart samples were collected from shams, border zone cells of water-treated infarcted hearts (MI/BZ) and D-Arg-2′6′-Dmt-Lys-Phe-NH2-treated hearts (MI/BZ+AP), and remote noninfarcted area cells of water-treated hearts (MI/R) and of D-Arg-2′6′-Dmt-Lys-Phe-NH2-treated hearts (MI/R+AP). […]

[2] = tested on: Rats with permanent left coronary artery occlusion; test: LV fractional shortening by echocardiography, permanent coronary occlusion (Example 2); type: in vivo, rat
Experimental: (§1) Rats were anesthetized, ventilated, and a thoracotomy performed in the left 4th intercostal space. Temperature was maintained at 36° C. by placing the rats on a heating pad during the procedure. The pericardium was excised and the proximal left coronary artery isolated and permanently occluded with a suture. Coronary artery occlusion was confirmed by cyanosis and akinesis of the anterior wall of the ventricle. The chest was closed, air evacuated, and the rats allowed to recover. Analgesia was administered per the veterinarian. An echocardiogram was obtained at approximately 15 minutes post coronary artery occlusion. At 2 hours rats were randomized to receive chronic daily D-Arg-2′6′-Dmt-Lys-Phe-NH2 (delivered subcutaneously by an Alzet Osmotic Pump—3 mg/kg/day) or water. The Osmotic Pump delivered approximately 0.15 μl/hr for 6 weeks (model 2006; 200 μl). The Alzat pump was implanted subcutaneously between the shoulder blades while the rat was still anesthetized. After 6 weeks the rats were re-anesthetized, weighed, and a second echocardiogram was obtained under anesthesia. Cut downs were performed to isolate the carotid artery and jugular vein. Heart rate and blood pressure were measured. A Millar catheter was inserted into the left ventricle and LV systolic pressure, LV end diastolic pressure, +dP/dt, and −dP/dt were measured. A left ventriculogram was performed using IV fluoroscopic contrast in order to determine LV stroke volume and ejection fraction. Under deep anesthesia, the heart was excised, weighed, and pressure fixed at 11 mmHg with formalin. The lungs were also excised and weighed. Postmortem LV volume was measured by filling the LV cavity with fluid and measuring the total fluid. […] Quantitative histologic analysis included: total circumference, scar circumference, non-infarcted wall circumference, total LV area, total LV cavity area, LV wall thickness (at several points), non-infarcted wall thickness; myocardial infarct expansion index. […]

[3] = tested on: Rats with permanent left coronary artery occlusion; test: LV stroke volume and ejection fraction by LV ventriculography (Example 2); type: in vivo, rat; settings: 6 weeks after treatment, 3 mg/kg/day s.c.
Experimental: as §1, with “The Osmotic Pump delivered approximately 0.15 μl/hr for 6 weeks (model 2006; 200 μl). The Alzat pump was implanted subcutaneously between the shoulder blades while the rat was still anesthetized. After 6 weeks the rats were re-anesthetized, weighed, and a second echocardiogram was obtained under anesthesia. Cut downs were performed to isolate the carotid artery and jugular vein.” left out, “A left ventriculogram was performed using IV fluoroscopic contrast in order to determine LV stroke volume and ejection fraction. Under deep anesthesia, the heart was excised, weighed, and pressure fixed at 11 mmHg with formalin. The lungs were also excised and weighed.” left out

[4] = tested on: Rats with permanent left coronary artery occlusion; test: Hemodynamics: heart rate, blood pressure and LV pressures by Millar catheter (Example 2); type: in vivo, rat; settings: 6 weeks after treatment
Experimental: (§2) Rats were anesthetized, ventilated, and a thoracotomy performed in the left 4th intercostal space. Temperature was maintained at 36° C. by placing the rats on a heating pad during the procedure. The pericardium was excised and the proximal left coronary artery isolated and permanently occluded with a suture. Coronary artery occlusion was confirmed by cyanosis and akinesis of the anterior wall of the ventricle. The chest was closed, air evacuated, and the rats allowed to recover. Analgesia was administered per the veterinarian. An echocardiogram was obtained at approximately 15 minutes post coronary artery occlusion. At 2 hours rats were randomized to receive chronic daily D-Arg-2′6′-Dmt-Lys-Phe-NH2 (delivered subcutaneously by an Alzet Osmotic Pump—3 mg/kg/day) or water. The Osmotic Pump delivered approximately 0.15 μl/hr for 6 weeks (model 2006; 200 μl). The Alzat pump was implanted subcutaneously between the shoulder blades while the rat was still anesthetized. After 6 weeks the rats were re-anesthetized, weighed, and a second echocardiogram was obtained under anesthesia. Cut downs were performed to isolate the carotid artery and jugular vein. Heart rate and blood pressure were measured. A Millar catheter was inserted into the left ventricle and LV systolic pressure, LV end diastolic pressure, +dP/dt, and −dP/dt were measured. A left ventriculogram was performed using IV fluoroscopic contrast in order to determine LV stroke volume and ejection fraction. Under deep anesthesia, the heart was excised, weighed, and pressure fixed at 11 mmHg with formalin. The lungs were also excised and weighed. Postmortem LV volume was measured by filling the LV cavity with fluid and measuring the total fluid. The hearts were sliced into four transverse sections and histologic slides were prepared and stained with hematoxylin and eosin and with picrosirius red, which stains collagen. Quantitative histologic analysis included: total circumference, scar circumference, non-infarcted wall circumference, total LV area, total LV cavity area, LV wall thickness (at several points), non-infarcted wall thickness; myocardial infarct expansion index.
(§3) All data is reported as means±SEM. Values between groups were compared by Student t-test. P is significant at p<0.05 level.

[5] = tested on: Rats with permanent left coronary artery occlusion; test: Heart weight and post-mortem LV volume (Example 2); type: in vivo, rat; settings: 6 weeks after treatment
Experimental: as §1

[6] = tested on: Rats with permanent left coronary artery occlusion; test: Quantitative histologic analysis of scar circumference, scar thickness and expansion index (Example 2); type: in vivo, rat; settings: 6 weeks after treatment
Experimental: as §2, §3

[7] = tested on: Rats with permanent left coronary artery occlusion; test: Survival during 6 weeks treatment after coronary occlusion (Example 2); type: in vivo, rat; settings: 6 weeks treatment after randomization at 2 hours post occlusion
Experimental: as §1, with “The Osmotic Pump delivered approximately 0.15 μl/hr for 6 weeks (model 2006; 200 μl). The Alzat pump was implanted subcutaneously between the shoulder blades while the rat was still anesthetized. After 6 weeks the rats were re-anesthetized, weighed, and a second echocardiogram was obtained under anesthesia. Cut downs were performed to isolate the carotid artery and jugular vein.” left out, “A left ventriculogram was performed using IV fluoroscopic contrast in order to determine LV stroke volume and ejection fraction. Under deep anesthesia, the heart was excised, weighed, and pressure fixed at 11 mmHg with formalin. The lungs were also excised and weighed.” left out

[8] = tested on: Rats with permanent coronary artery ligation; test: Post-infarction remodeling in a rodent model of heart failure, LV chamber volume (Example 3); type: in vivo, rat
Experimental: Rats underwent the permanent coronary artery ligation, as described in Example 2. The rats were split into two groups and treated for six weeks with either 3 mg/kg/day of D-Arg-2′6′-Dmt-Lys-Phe-NH2 or 0.9% NaCl (saline) continuously through mini-osmotic pumps, which were implanted into each animal.
After the six week period, LV function was assessed with echocardiography. Additionally, the hearts were excised and the heart tissue analyzed for LV chamber volume using tetrazolium salt staining Heart tissue in the border zone and remote areas around the infarct were also harvested and underwent gene array analysis to determine the expression levels of genes involved in mitochondrial metabolism.

2′,6′-Dmt-D-Arg-Phe-Lys-NH2
plasma membrane penetration [1]: readily penetrates the plasma membrane

D-Arg-2′6′-Dmt-Lys-Phe-NH2
SERCA2a expression, border zone cells (MI/BZ+AP) (SERCA2a expression; 3 mg/kg/day s.c. osmotic pump from 2 hours post occlusion): restored SERCA2a expression to near normal levels
SERCA2a expression, nonischemic remote area (MI/R) (SERCA2a expression; 3 mg/kg/day s.c. osmotic pump): no significant differences
left ventricular fractional shortening (LVFS) ([2]; 6 weeks after treatment, 3 mg/kg/day s.c. osmotic pump from 2 hours post occlusion): 28.8±1.7%
left ventricular fractional shortening (LVFS) ([2]; 15 minutes after coronary occlusion (before treatment)): 45±1.8
left ventricular fractional shortening (LVFS) ([2]; baseline before coronary occlusion (before treatment)): 44.5±1.1%
LV ejection fraction [3]: 55.3±1.4%
LV stroke volume [3]: 0.257 ± 0.008 mL
minimum left ventricular pressure [4]: 0.64±0.55 mmHg
Diastolic BP ([4]; 3 mg/kg/day s.c.): 85 ± 2 mmHg
Heart Rate ([4]; 3 mg/kg/day s.c.): 209 ± 5
Mean BP ([4]; 3 mg/kg/day s.c.): 94 ± 3 mmHg
Systolic BP ([4]; 3 mg/kg/day s.c.): 114 ± 4 mmHg
+dp/dt ([4]; left ventricle): 5668
Ped (end diastolic left ventricular pressure) ([4]; left ventricle): 5.63
Pes (end systolic left ventricular pressure) ([4]; left ventricle): 105
Pmin (minimum left ventricular pressure) ([4]; left ventricle): 0.64 +
Tau Glantz ([4]; left ventricle): 24.6
Tau Weiss ([4]; left ventricle): 14.6
−dp/dt ([4]; left ventricle): 3639
Heart weight ([5]; 3 mg/kg/day s.c.): 0.724 ± 0.011 g
LV volume (post-mortem) ([5]; heart pressure fixed at 11 mmHg): 0.519 ± 0.019 mL
LV volume/heart weight ([5]; post-mortem LV volume standardized by heart weight): 0.72±0.02
Scar circumference (%), expressed as percentage of total LV circumference [6]: 39.7±2.2%
Scar thickness [6]: 0.504 ± 0.039 mm
Septum thickness [6]: 1.45 ± 0.03 mm
LV non-scar circumference ([6]; histological analysis): 15.4±0.4 mm
scar circumference ([6]; histological analysis): 9.9±0.6 mm
Expansion index ([6]; [LV cavity area/Total LV area×Septum thickness/Scar thickness]): 1.67 ± 0.12
deaths during treatment [7]: no rats died
LV volume/heart weight ([8]; 3 mg/kg/day for six weeks by mini-osmotic pump versus 0.9% NaCl, FIG. 6): decrease in LV volume/heart weight
LV dilation ([8]; 3 mg/kg/day for six weeks by mini-osmotic pump, post-infarction model of heart failure): reduced LV dilation
